Measurements from article PMC6207370 (Xenobiotica; the fate of foreign compounds in biological …, 2017).
Like-named read-outs stand apart in the source and are kept apart here. Marks after values point to notes of the source that are not given here.

Assays:
Allometric scaling = test: Allometric scaling; set-up: species or system human; conditions: SSS from minipig
[1] = format: in vitro ADME
[2] = both, human, pH 7.4
[3] = male, CD-1, mouse, 1 μM, pH 7.4
[4] = male, Sprague-Dawley, rat, 1 μM, pH 7.4
[5] = male, Hartley, guinea pig, pH 7.4
[6] = male, cynomolgus monkey, pH 7.4
[7] = male, rhesus monkey, pH 7.4
[8] = male, Gottingen, minipig, 1 μM, pH 7.4
in vitro [9] = conditions: both, human
in vitro [10] = conditions: male, CD-1, mouse, s9, pH 7.4, CLint +NADPH
in vitro [11] = conditions: male, Sprague-Dawley, rat, s9, pH 7.4, CLint +NADPH
in vitro [12] = conditions: male, Hartley, guinea pig
in vitro [13] = conditions: male, cynomolgus monkey
in vitro [14] = conditions: male, rhesus monkey
in vitro [15] = conditions: male, Gottingen, minipig, s9, pH 7.4, CLint +NADPH
[16] = i.v., ref Dolan ME, Roy SK, Fasanmade AA, et al. (1998); cited from earlier work

Structure (SMILES): Nc1nc(OCc2ccccc2)c2[nH]cnc2n1 [O^6-benzylguanine]
- fold-error of human S9 CLint predicted by SSS (Allometric scaling): outside of 3-fold-error
- Fm,AO, across species ([1]; all species except rat, mouse, and minipig): ≥ 0.70
- E (estimated hepatic extraction ratio), across species ([1]; human, cynomolgus, and guinea pig hepatic S9): approximately 0.5
- E (estimated hepatic extraction ratio), across species ([1]; rat, mouse, minipig hepatic S9): approximately 0.1
- CLHEP (hepatic clearance) ([2]; 1 μM): 9.62 ± 0.593 mL/min/kg
- E (estimated hepatic extraction ratio) ([2]; 1 μM): 0.46
- Fm,AO Method A (fraction metabolized by AO) ([2]; s9, 1 μM): 0.70
- Fm,AO Method B (fraction metabolized by AO) ([2]; s9, 1 μM): 0.83
- CLHEP (hepatic clearance) [3]: 16.6 ± 4.51 mL/min/kg
- E (estimated hepatic extraction ratio) [3]: 0.18
- CLHEP (hepatic clearance) [4]: 7.40 ± 1.61 mL/min/kg
- E (estimated hepatic extraction ratio) [4]: 0.11
- CLHEP (hepatic clearance) ([5]; 1 μM): 30.3 ± 1.11 mL/min/kg
- E (estimated hepatic extraction ratio) ([5]; 1 μM): 0.50
- Fm,AO Method A (fraction metabolized by AO) ([5]; s9, 1 μM): 0.74
- Fm,AO Method B (fraction metabolized by AO) ([5]; s9, 1 μM): 0.83
- CLHEP (hepatic clearance) ([6]; 1 μM): 21.4 ± 2.28 mL/min/kg
- E (estimated hepatic extraction ratio) ([6]; 1 μM): 0.49
- Fm,AO Method A (fraction metabolized by AO) ([6]; s9, 1 μM): 1
- Fm,AO Method B (fraction metabolized by AO) ([6]; s9, 1 μM): 0.94
- CLHEP (hepatic clearance) ([7]; 1 μM): 15.0 ± 1.75 mL/min/kg
- E (estimated hepatic extraction ratio) ([7]; 1 μM): 0.34
- Fm,AO Method A (fraction metabolized by AO) ([7]; s9, 1 μM): 1
- Fm,AO Method B (fraction metabolized by AO) ([7]; s9, 1 μM): 1^#
- CLHEP (hepatic clearance) [8]: 3.79 ± 1.04 mL/min/kg
- E (estimated hepatic extraction ratio) [8]: 0.14
- CLint scaled at 1 μM (in vitro [9]; s9, pH 7.4, CLint +NADPH): 17.8 ± 3.05 mL/min/kg
- CLint scaled at 1 μM (in vitro [9]; s9, pH 7.4, CLint +NADPH +Hyd): 5.37 ± 1.16 mL/min/kg
- CLint scaled at 1 μM (in vitro [9]; s9, pH 7.4, CLint −NADPH): 14.8 ± 1.98 mL/min/kg
- CLint scaled at 1 μM (in vitro [10]): 15.5 ± 2.48 mL/min/kg
- CLint scaled at 1 μM (in vitro [11]): 6.59 ± 0.664 mL/min/kg
- CLint scaled at 1 μM (in vitro [12]; s9, pH 7.4, CLint +NADPH): 58.7 ± 4.65 mL/min/kg
- CLint scaled at 1 μM (in vitro [12]; s9, pH 7.4, CLint +NADPH +Hyd): 15 ± 2.14 mL/min/kg
- CLint scaled at 1 μM (in vitro [12]; s9, pH 7.4, CLint −NADPH): 48.7 ± 5.15 mL/min/kg
- CLint scaled at 1 μM (in vitro [13]; s9, pH 7.4, CLint +NADPH): 35.6 ± 5.1 mL/min/kg
- CLint scaled at 1 μM (in vitro [13]; s9, pH 7.4, CLint −NADPH): 33.5 ± 3.84 mL/min/kg
- CLint scaled at 1 μM (in vitro [14]; s9, pH 7.4, CLint +NADPH): 19.5 ± 2.05 mL/min/kg
- CLint scaled at 1 μM (in vitro [14]; s9, pH 7.4, CLint −NADPH): 21.3 ± 1.52 mL/min/kg
- CLint scaled at 1 μM (in vitro [15]): 4.68 ± 2.2 mL/min/kg
- Human Plasma Clearance [16]: 14.5^# mL/min/kg
